Test results published in patent US20240400577A1, “MODULATORS OF PROTEIN KINASES” (VIBLIOME THERAPEUTICS, LLC, priority 2021, published 2024).
pIC50: −log10 of the molar value.

What was measured:
Assay in all cases: Kinase panel enzymatic inhibition assay (Nanosyn)
Assay type in all cases: biochemical
[1] = target: T1, TYK2 (Homo sapiens, UniProt P29597); conditions: ATP at Km; 30-minute pre-incubation; read-out: kinase inhibition in terms of IC50, TYK2
T1 construct: purchased Nanosyn
Summary of the method: (§1)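 Read-out is percent inhibition or IC50, obtained by mobility shift, ADP detection or time-resolved fluorescence detection. Each kinase was run with ATP at its Km, and compound at 5 μM was pre-incubated for 30 minutes.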

[2] = target: T2, PLK4 (Homo sapiens, UniProt O00444); conditions: ATP at Km; 30-minute pre-incubation; read-out: kinase inhibition in terms of IC50, PLK4
T2 construct: Nanosyn (contract laboratory that ran the panel)
T2 sequence (O00444 1-970): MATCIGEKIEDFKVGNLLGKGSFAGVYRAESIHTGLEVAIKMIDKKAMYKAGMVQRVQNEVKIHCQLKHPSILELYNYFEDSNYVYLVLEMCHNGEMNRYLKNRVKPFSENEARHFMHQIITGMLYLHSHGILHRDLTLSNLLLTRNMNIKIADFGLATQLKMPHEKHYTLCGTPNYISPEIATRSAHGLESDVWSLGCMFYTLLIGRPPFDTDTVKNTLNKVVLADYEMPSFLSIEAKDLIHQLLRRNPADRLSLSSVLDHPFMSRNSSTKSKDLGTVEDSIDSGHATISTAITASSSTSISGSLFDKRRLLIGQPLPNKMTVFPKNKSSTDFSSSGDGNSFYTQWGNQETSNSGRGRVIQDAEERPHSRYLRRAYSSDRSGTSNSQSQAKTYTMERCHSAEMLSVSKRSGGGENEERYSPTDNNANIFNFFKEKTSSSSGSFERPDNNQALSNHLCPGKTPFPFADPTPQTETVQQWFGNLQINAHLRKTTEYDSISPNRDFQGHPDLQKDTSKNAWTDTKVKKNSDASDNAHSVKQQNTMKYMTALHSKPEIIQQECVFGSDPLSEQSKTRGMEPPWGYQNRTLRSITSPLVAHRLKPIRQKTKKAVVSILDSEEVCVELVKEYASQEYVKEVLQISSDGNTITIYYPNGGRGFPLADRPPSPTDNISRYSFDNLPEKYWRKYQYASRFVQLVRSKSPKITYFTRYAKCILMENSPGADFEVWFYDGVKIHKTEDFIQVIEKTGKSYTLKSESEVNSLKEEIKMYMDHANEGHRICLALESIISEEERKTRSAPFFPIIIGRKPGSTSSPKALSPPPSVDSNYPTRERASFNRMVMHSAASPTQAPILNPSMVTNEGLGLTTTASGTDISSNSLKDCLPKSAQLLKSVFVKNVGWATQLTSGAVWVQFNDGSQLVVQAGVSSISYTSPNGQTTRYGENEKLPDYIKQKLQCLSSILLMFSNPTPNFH
Summary of the method: as §1

[3] = target: T3, JAK3 (Homo sapiens, UniProt P52333); conditions: ATP at Km; 30-minute pre-incubation; read-out: kinase inhibition in terms of IC50, JAK3
T3 construct: Nanosyn (contract laboratory that ran the panel)
T3 sequence (P52333 1-1124): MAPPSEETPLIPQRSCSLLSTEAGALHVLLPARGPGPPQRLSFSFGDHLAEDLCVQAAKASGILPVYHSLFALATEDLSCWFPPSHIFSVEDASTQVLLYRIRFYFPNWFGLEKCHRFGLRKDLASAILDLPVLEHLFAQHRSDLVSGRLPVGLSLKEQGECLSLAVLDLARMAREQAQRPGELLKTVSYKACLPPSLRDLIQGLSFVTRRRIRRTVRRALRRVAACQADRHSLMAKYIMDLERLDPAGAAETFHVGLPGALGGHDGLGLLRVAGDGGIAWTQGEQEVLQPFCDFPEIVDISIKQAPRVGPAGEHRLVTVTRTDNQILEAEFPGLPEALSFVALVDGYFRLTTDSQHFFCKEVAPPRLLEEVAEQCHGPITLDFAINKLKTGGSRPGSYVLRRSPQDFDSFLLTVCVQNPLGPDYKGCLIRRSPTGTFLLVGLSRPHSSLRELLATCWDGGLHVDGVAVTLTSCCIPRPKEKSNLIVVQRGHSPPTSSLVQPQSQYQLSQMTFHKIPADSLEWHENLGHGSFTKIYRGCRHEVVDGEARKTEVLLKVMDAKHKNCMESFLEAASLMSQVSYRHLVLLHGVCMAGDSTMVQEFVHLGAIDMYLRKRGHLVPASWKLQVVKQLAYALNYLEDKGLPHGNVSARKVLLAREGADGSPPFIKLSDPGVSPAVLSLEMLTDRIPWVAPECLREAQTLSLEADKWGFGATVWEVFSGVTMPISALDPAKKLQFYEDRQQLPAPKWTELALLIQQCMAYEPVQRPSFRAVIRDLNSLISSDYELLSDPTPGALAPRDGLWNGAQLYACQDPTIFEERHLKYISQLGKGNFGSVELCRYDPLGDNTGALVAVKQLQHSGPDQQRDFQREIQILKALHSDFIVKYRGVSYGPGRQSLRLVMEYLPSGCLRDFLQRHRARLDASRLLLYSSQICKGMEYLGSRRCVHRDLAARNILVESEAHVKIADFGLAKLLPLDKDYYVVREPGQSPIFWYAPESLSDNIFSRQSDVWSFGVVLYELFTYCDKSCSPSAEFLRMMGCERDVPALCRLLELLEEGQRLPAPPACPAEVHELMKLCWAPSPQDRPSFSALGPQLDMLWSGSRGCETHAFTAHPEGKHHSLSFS
Summary of the method: as §1

T1 sequence (P29597 whole entry): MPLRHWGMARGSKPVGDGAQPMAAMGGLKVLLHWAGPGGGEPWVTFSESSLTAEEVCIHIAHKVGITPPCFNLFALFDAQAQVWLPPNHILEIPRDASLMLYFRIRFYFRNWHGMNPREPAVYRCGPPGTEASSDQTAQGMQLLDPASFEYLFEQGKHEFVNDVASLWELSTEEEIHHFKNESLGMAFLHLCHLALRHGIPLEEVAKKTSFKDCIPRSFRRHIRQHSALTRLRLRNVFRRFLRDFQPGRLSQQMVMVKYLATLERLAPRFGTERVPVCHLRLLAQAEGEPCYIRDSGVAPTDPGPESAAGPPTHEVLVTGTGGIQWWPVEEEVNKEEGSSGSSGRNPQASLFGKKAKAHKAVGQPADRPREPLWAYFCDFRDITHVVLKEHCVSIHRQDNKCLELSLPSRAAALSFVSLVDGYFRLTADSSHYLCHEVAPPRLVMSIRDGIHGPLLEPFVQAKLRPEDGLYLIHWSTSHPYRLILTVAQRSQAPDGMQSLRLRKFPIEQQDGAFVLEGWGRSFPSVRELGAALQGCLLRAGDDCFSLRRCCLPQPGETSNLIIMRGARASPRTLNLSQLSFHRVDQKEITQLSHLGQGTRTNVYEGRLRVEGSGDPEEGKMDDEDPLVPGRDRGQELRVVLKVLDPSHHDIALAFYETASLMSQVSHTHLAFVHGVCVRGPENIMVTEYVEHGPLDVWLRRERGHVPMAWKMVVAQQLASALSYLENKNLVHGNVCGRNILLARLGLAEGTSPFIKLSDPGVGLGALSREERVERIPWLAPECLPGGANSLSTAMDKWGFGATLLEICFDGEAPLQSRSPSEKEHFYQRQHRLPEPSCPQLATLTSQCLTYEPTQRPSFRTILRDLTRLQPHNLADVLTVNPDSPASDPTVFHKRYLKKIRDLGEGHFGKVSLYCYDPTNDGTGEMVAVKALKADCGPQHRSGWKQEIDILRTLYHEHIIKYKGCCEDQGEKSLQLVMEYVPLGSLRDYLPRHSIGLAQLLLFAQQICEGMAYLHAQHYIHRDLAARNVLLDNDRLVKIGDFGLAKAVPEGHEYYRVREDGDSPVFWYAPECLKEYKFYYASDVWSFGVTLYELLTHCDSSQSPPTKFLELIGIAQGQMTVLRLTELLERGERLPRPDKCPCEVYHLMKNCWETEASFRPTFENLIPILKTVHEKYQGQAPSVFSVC

Row | pIC50 [1] | pIC50 [2] | pIC50 [3] | Compound
1 | ≤ 5.00 | 5.00 to 6.00 | ≤ 5.00 | COc1cc2nccc(Oc3ccc(NC(=O)c4cc(S(C)(=O)=O)n(-c5ccc(F)cc5)n4)c(F)c3)c2cc1OC [Ex71, N-(4-((6,7-dimethoxyquinolin-4-yl)oxy)-2-fluorophenyl)-1-(4-fluorophenyl)-5-(methylsulfonyl)-1H-pyrazole-3-carboxamide]
2 | 5.00 to 6.00 | 6.00 to 6.30 | ≤ 5.00 | COc1cc2nccc(Oc3ccc(NC(=O)c4cc(S(C)(=O)=O)n(-c5ccc(F)cc5)n4)cc3)c2cc1OC [Ex72, N-(4-((6,7-dimethoxyquinolin-4-yl)oxy)phenyl)-1-(4-fluorophenyl)-5-(methylsulfonyl)-1H-pyrazole-3-carboxamide]
3 |  | > 6.30 | ≤ 5.00 | COc1cc2nccc(Oc3ccc(NC(=O)c4cc(S(C)(=O)=O)n(-c5ccc(F)cc5)n4)cc3F)c2cc1OC [Ex73, N-(4-((6,7-dimethoxyquinolin-4-yl)oxy)-3-fluorophenyl)-1-(4-fluorophenyl)-5-(methylsulfonyl)-1H-pyrazole-3-carboxamide]
